Experiments:
[1] = tested on: supercomplex assembly (synthasomes); assay: synthasome levels by clear native immunoblot in adult heart mitochondria; format: biochemical, mice; conditions: 0.5 mM; n=7
Protocol: Inhibition of CyPD should […] the assembly of the ETC into supercomplexes.
Adult heart mitochondria were used to show decreased supercomplex assembly after PTP opening and increased supercomplex assembly after PTP inhibition or deletion (FIG. 1). A: Mitochondrial permeability transition was induced by 60 μM free Ca^2+ (arrow) and was inhibited by 0.5 mM ADP or 200 nM CsA (top panel). Swelling, indicating PTP opening and a fall in absorbance, is reversible after the addition of 250 μM EGTA (arrow; bottom panel). […] The experimental conditions are summarized below the blot. […] Note that the ATP synthase IGA results a white reaction product, so the shading is correct. (N=4, * p≤0.05, ** p≤0.001 by T-test).

CyPD = conditions: cited from earlier work
adult animals = conditions: 10 mg/Kg IV; cited from earlier work

Row | Molecule | Ca2+-induced PT decrease of synthasome levels [1] | K0.5 as a CyPD inhibitor (CyPD) | potency as a CyPD inhibitor relative to CsA (CyPD) | effects of ischemia reperfusion injury in the heart (adult animals)
1 | Nc1ncnc2c1ncn2[C@@H]1O[C@H](COP(=O)(O)OP(=O)(O)O)[C@@H](O)[C@H]1O [ADP] | inhibited | – | – | –
2 | CC[C@H]1C[C@H](C)[C@@]2(NC1=O)O[C@@H](C[C@H](O)[C@@H](C)CC/C=C/C=C(\C)[C@@H]1C/C=C/C=C/[C@H](O)[C@H](C)[C@@H](O)[C@@H](CCC(C)=O)C(=O)N[C@@H](C(C)C)C(=O)N[C@@H](Cc3cccc(O)c3)C(=O)N3CCC[C@H](N3)C(=O)O1)[C@H](C)[C@H](O)[C@@H]2C [Sangliferin A, Sanglifehrin A] | – | 2 nM | more potent | –
3 | Alisporivir | – | – | about as potent as CsA | ameliorate
